The values below come from patent US11911396B2, “Use of compound in preparation of drug for treating cerebral small vessel disease” (GUANGZHOU CELLPROTEK PHARMACEUTICAL CO., LTD, priority 2017, dated 2024).

One assay concerns Iba-1. Nature of the assay: Iba-1 immunohistochemical staining of prefrontal cortex brain tissue, acute hypobaric hypoxia model. In kind it is in vivo, cynomolgus monkeys. An excerpt: FIG. 2. Activation of microglia in the brain tissue of the prefrontal cortex of cynomolgus monkeys. A. Iba-1 immunohistochemical staining of the brain tissue of the prefrontal cortex of cynomolgus monkeys, Iba-1 serves as a marker for microglia activation. The black scale bar is 25 μm and the red scale bar is 200 μm. B. Statistics of Iba-1 relative optical density values. Image pro plus software was used to perform optical density scanning on the immunohistochemical images of each group to obtain the optical density values, which were then normalized with the NN group. NN: Normobaric Normoxia group (n=4); HH: Hypobaric Hypoxia group (n=4); HH+Triol: Hypobaric Hypoxia with Triol administration group (n=3); HH+PROG: Hypobaric Hypoxia with control drug administration group (n=4). […]
The experiment was carried out according to routine immunohistochemical procedures, as follows: the thickness of paraffin sections of prefrontal cortex tissue of cynomolgus monkeys was 5 μm, and fresh paraffin sections were baked overnight at 37° C. […] Imaging: Nikon ECLIPSE Ti-U inverted fluorescence microscope was used to take pictures of the sections in the bright field, by adjusting the appropriate exposure intensity and background white balance, and fixing the shooting adjustments to take pictures of each group of slices from multiple views and by multiples folds. […]

In the next assay the test system is CD163. Nature of the assay: Western blot of CD163 in prefrontal cortex brain tissue, acute hypobaric hypoxia model. It counts as in vivo, cynomolgus monkeys. Conditions: FIGS. 4A and 4B. The source says:
FIG. 4. Triol enhanced the clearance of free hemoglobin in brain tissue by up-regulating CD163 and Heme Oxygenase-1 (HO-1) protein levels. A. Protein expression of hemoglobin scavenger receptor CD163 and heme oxygenase HO-1 in the brain tissue of the prefrontal cortex of cynomolgus monkeys; B. Statistics of protein relative gray scan values. The gray value was obtained by scanning with Image Lab software, and the relative value was obtained after normalizing with α-Tubulin. NN: Normobaric Normoxia group (N=3); HH: Hypobaric Hypoxia group (N=3); HH+Triol: Hypobaric Hypoxia with Triol administration group (N=3); HH+PROG: Hypobaric Hypoxia with progesterone administration group (N=3). […]
1) Preparation of protein samples (see the instructions of M-PER protein lysate): After the cells had been processed for the specified time, the medium was aspirated and then washed with 4° C. pre-chilled PBS (0.01M pH7.2˜7.3) for 3 times. […] 2) BCA protein quantification (see the instructions of BCA protein quantification kit): corresponding components were added to a 96-well detection plate by the ratio of quantification reagent A solution:B solution:ddH2O:protein=100:2:7.5:5, and albumin standards diluted in gradient concentration were added to draw a standard curve. […] After the reaction, the absorbance of each well at a wavelength of 562 nm was detected using a microplate reader. […]
(In general: Immunoblotting shows a protein as a band on a membrane.)

In the case of `C[C@@]12CCCC1C1C[C@@H](O)[C@@]3(O)C[C@@H](O)CC[C@]3(C)C1CC2` (stereo partly drawn) [Triol, 5α-androst-3β,5,6β-triol], the “number of cells in the activation-like morphology (microglia)” value in the assay with Iba-1 (FIG. 2) is recorded as “decreased”. In the assay with Iba-1 (immunohistochemistry, FIG. 2B), the “expression of Iba-1” value is “decreased significantly”. Further, in the assay on CD163, the “down-regulation of CD163 expression caused by acute hypobaric hypoxia” value is on record as “significantly restored”.
